Earlier results on two compounds are cited in article PMC5368910 (BMC Pharmacology & Toxicology, 2017).

For data set [1], the system named is C. difficile. Set-up: method as in PMID 22183166, PMID 22391542. The settings on record: in vitro, C. difficile isolates; cited from earlier work.
The subject of data set [2] is Clostridium difficile-associated diarrhea (CDAD). As to conditions: stated for vancomycin and metronidazole treatments together; cited from earlier work. The text has this:
Despite having a clinical response rate of ~73 to 85%, vancomycin and metronidazole treatments are associated with recurrent CDAD in up to 45% of patients. Aggressive vancomycin and metronidazole treatment is also associated with disruption of the intestinal microbiota and can promote colonization by vancomycin-resistant enterococci, highlighting the need for novel treatment options. An ideal agent for the treatment of CDAD should be associated with low levels of systemic absorption, resulting in high concentrations of the drug in the colon, combined with a narrow spect ...

As to `CN[C@H](CC(C)C)C(=O)N[C@H]1C(=O)N[C@@H](CC(N)=O)C(=O)N[C@H]2C(=O)N[C@H]3C(=O)N[C@H](C(=O)N[C@H](C(=O)O)c4cc(O)cc(O)c4-c4cc3ccc4O)[C@H](O)c3ccc(c(Cl)c3)Oc3cc2cc(c3O[C@@H]2O[C@H](CO)[C@@H](O)[C@H](O)[C@H]2O[C@H]2C[C@](C)(N)[C@H](O)[C@H](C)O2)Oc2ccc(cc2Cl)[C@H]1O` [vancomycin, reference compound], in data set [1], the “minimum inhibitory concentration at which 90% of the isolates were inhibited [MIC90]” value was 2.0 µg/mL. The “recurrent CDAD, share of patients” value in data set [2] was “up to 45%”. On to `Cc1ncc([N+](=O)[O-])n1CCO` [metronidazole], for which the “recurrent CDAD, share of patients” value in data set [2] is “up to 45%”.
